From patent US9708295B2, “Substituted 2-aminopyridine protein kinase inhibitor” (CHIA TAI TIANQING PHARMACEUTICAL GROUP CO., LTD, priority 2013, dated 2017)

Experiments:
[1] = In vivo pharmacokinetics in SD rats; conditions: Sprague-Dawley, rat, po, 5 mg/kg
CYP-3A4 = CYP-3A4 (Homo sapiens (Human), UniProt P08684); test: Inhibition of CYP-3A4 (midazolam substrate); format: in vitro ADME; conditions: for IC50: substrate midazolam, read-out: Inhibition to CYP-3A4, 3A4_Midazolam
[2] = system: human non-small cell lung carcinoma NCI-H2228; test: Therapeutic effect on human non-small cell lung carcinoma NCI-H2228 xenografts in nude mice; format: in vivo; conditions: D0-13 once a day; for Average tumor volume (mm^3) D0: D0 baseline at grouping
ALK kinase = ALK kinase (Homo sapiens (Human), UniProt Q9UM73); conditions: read-out: IC50 (nM), ALK inhibition activity; HTRF, ATP at Km
Sequence of ALK kinase (Q9UM73 19-1620): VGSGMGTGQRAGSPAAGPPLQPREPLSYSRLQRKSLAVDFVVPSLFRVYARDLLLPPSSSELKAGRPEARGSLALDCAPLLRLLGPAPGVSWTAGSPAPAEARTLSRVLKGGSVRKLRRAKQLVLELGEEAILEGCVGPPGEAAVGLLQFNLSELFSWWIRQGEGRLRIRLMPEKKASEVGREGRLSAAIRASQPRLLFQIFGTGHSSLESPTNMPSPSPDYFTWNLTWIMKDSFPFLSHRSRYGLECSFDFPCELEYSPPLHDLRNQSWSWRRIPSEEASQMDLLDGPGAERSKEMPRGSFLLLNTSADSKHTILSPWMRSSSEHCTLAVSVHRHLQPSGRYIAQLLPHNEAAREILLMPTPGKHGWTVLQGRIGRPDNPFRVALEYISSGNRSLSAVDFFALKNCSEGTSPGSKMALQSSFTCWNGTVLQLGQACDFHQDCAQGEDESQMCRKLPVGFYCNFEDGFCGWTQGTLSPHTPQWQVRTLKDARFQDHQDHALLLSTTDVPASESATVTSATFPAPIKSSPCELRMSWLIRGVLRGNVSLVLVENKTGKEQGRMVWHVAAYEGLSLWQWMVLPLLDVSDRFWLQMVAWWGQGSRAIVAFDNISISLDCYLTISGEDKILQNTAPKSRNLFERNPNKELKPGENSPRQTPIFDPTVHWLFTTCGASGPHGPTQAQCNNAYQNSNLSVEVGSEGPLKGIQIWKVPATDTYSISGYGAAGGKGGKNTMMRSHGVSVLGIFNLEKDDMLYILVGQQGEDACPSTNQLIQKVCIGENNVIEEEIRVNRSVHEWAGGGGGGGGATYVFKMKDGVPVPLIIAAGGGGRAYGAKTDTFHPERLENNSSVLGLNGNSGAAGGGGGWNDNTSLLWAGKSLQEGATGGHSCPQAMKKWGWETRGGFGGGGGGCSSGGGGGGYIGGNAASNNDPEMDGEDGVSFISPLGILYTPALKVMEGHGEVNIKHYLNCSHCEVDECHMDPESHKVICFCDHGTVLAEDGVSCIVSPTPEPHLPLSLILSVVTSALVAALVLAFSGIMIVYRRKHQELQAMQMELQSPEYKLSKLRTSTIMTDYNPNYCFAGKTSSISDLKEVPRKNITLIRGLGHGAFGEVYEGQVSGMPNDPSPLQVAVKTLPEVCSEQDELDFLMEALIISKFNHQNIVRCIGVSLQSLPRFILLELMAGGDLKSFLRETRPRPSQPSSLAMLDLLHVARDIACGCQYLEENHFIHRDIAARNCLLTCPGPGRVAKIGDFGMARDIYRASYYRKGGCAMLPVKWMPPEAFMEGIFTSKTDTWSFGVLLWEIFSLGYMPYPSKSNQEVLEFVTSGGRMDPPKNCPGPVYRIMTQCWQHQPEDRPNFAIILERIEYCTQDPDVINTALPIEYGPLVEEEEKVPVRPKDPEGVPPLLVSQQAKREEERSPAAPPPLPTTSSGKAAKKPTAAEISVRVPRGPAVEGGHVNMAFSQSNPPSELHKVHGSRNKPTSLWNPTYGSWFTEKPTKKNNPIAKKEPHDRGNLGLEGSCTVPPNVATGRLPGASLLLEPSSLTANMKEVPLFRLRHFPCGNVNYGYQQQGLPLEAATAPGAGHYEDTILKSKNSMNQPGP

[3] = molecular target: L1196M mutated ALK kinase (Homo sapiens (Human), UniProt Q9UM73, L1196M); test: biochemical
Sequence of L1196M mutated ALK kinase (Q9UM73 19-1620 L1196M): as the sequence (Q9UM73 19-1620) above, with L1178M counted along it

[4] = molecular target: G1269S mutated ALK kinase (Homo sapiens (Human), UniProt Q9UM73, G1269S); test: biochemical
Sequence of G1269S mutated ALK kinase (Q9UM73 19-1620 G1269S): as the sequence (Q9UM73 19-1620) above, with G1251S counted along it

in vivo = conditions: Sprague-Dawley, rat, po, 5 mg/kg

Sequence of CYP-3A4 (P08684 whole entry): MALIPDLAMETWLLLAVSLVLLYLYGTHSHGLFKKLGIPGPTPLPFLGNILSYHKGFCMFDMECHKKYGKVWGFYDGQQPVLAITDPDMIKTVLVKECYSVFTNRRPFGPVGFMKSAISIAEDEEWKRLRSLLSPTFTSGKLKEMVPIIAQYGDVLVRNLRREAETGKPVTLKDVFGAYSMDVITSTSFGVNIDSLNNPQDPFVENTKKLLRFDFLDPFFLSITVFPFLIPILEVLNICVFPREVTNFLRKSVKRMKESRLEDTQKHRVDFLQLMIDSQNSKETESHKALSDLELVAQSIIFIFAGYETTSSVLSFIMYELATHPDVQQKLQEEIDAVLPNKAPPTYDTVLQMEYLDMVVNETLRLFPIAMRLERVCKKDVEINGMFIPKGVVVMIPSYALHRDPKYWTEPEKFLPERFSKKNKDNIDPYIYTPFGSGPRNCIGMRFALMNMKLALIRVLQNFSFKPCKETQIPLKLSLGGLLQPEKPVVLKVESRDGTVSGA

Row | Structure (SMILES) | AUC(0-inf) [1] | Cmax [1] | Tmax [1] | half-life [1] | inhibition against CYP-3A4 (in words) (CYP-3A4) | IC50 (CYP-3A4) | Average tumor volume (mm^3) D0 ([2]; 12.5 mg/kg PO) | % Inhibition rate D21 ([2]; 12.5 mg/kg PO, D21) | % T/C D21 ([2]; 12.5 mg/kg PO, D21) | Average tumor volume (mm^3) D21 ([2]; 12.5 mg/kg PO, D21) | Average tumor volume (mm^3) D0 ([2]; 25 mg/kg PO) | Average tumor volume (mm^3) D21 ([2]; 25 mg/kg PO, D21) | % T/C D21 ([2]; 25 mg/kg PO, D21, tumor regression formula) | IC50 (ALK kinase) | IC50 [3] | IC50 [4] | AUC(0-inf) (in vivo) | Cmax (in vivo) | Tmax (in vivo) | half-life (in vivo)
1 | CCOc1cc(N2CCNC[C@@H]2C)ncc1-c1cnc(N)c(O[C@H](C)c2c(Cl)ccc(F)c2Cl)c1 [Example 53, 5-((R)-1-(2,6-dichloro-3-fluorophenyl)ethoxy)-4′-ethoxy-6′-((S)-2-methylpiperazin-1-yl)-[3,3′-bipyridin]-6-amine] | 0.83 µg·h/mL | 0.0626 µg/mL | 3.33 h | 4.75 h |  |  |  |  |  |  |  |  |  |  |  |  |  |  |  | 
2 | COc1cc(N2CCNC[C@@H]2C)ncc1-c1cnc(N)c(O[C@H](C)c2c(Cl)ccc(F)c2Cl)c1 [Example 27, 5-((R)-1-(2,6-dichloro-3-fluorophenyl)ethoxy)-4′-methoxy-6′-((S)-2-methylpiperazin-1-yl)-[3,3′-bipyridin]-6-amine] | 0.601 µg·h/mL | 0.0697 µg/mL | 3.67 h | 5.45 h | no significant inhibition | > 10 µM | 134.3 mm^3 | 78% | 22% | 394.8 mm^3 | 131.0 mm^3 | 21.7 mm^3 | −83% | 1.96 nM | 0.0351 ± 0.0053 µM | 0.0613 ± 0.0079 µM |  |  |  | 
3 | COc1cc(-c2cnc(N)c(O[C@H](C)c3c(Cl)ccc(F)c3Cl)c2)cnc1C1=CCNCC1 [Example 30, (R)-5-(1-(2,6-dichloro-3-fluorophenyl)ethoxy)-5′-methoxy-1″,2″,3″,6″-tetrahydro-[3,3′:6′,4″-terpyridin]-6-amine] |  |  |  |  | no significant inhibition | > 10 µM |  |  |  |  |  |  |  |  |  |  | 1.27 µg·h/mL | 0.113 µg/mL | 3 h | 4.43 h
